For one series, the system named is Earthworms. Nature of the series: Albendazole induced anthelmintic activity on earthworms (paralysis and death). Type of series: in vivo, earthworm. As to the method:
An experiment to see how tetrahydropiperine enhances the skin permeability of anthelmintic drugs such as albendazole on intestinal worms was conducted. However, as a preliminary study towards this, tests on earthworms were conducted.
Earthworms were obtained from the Al Ameen College of Pharmacy, Bangalore. Albendazole (Zentel) was obtained from Smith Kline Beecham Pharmaceuticals, Bangalore. The aqueous test solution contained tetrahydropiperine (Tetraperine™, A proprietary product of Sabinsa Corporation, USA) of 0.1% and 0.2% w/v suspended in 0.25% w/v sodium carboxy methyl cellulose.
1. Effect of Albendazole: Earth worms of similar length and weight were divided into three groups of six worms each. […] The time of onset of paralysis was noted and the death of the worms were observed and recorded as above.

A short description of series [1]: Primary skin irritation potential, Draize's method. Format: in vivo, New Zealand White rabbits. The method, then:
The study was designed to determine the primary skin irritation potential on New Zealand White rabbits following the guidelines provided by Gaitonde Committee, CIB, New Delhi, India
New Zealand White, healthy, adult male and female rabbits, each group comprising of 3 randomly selected animals of each sex.
0.5 ml of the test substance was applied to dehaired intact and abraded skin sites of each test animal. Care was taken to note that the abrasions penetrated the Stratum corneum, but not the dermis. A gauze patch was secured over each treated area using tape. The patch and unabsorbed test substance were removed after 24 hours. Each site of application was carefully observed and the reaction evaluated according to Draize's method at 24 and 72 hours.

The mark [2] stands for this setting: Albendazole 0.2% + THP 0.1% vs Albendazole 0.2%.
[3] abbreviates: Albendazole 0.2% + THP 0.1% w/v.
Setting [4] is: Albendazole 0.2% + THP 0.2% vs Albendazole 0.2%.
Setting [5] is: Albendazole 0.2% + THP 0.2% w/v.

Entries after “also recorded” stand apart in the source; their conditions may differ.

The values that follow come from patent US6849645B2, “Method of increased bioavailability of nutrients and pharmaceutical preparations with tetrahydropiperine and its analogues and derivatives” (priority 2000, dated 2005).

As for `O=C(CCCCc1ccc2c(c1)OCO2)N1CCCCC1` [Tetrahydropiperine, 1-[5-(1,3-Benzodioxol-5 yl)-1-oxo-pentanoyl]-Piperidine], the “% Reduction in time for Death” value is reported as 11.03% in the series on Earthworms (setting [2]), 32.32% in the series with Earthworms (setting [4]) and “Nil” in the series on Earthworms (THP 0.1% alone). Besides, the “% Reduction in time for Paralysis” value in the series with Earthworms (setting [2]) is reported as 12.81%; in the series with Earthworms (setting [4]), 37.36%; with Earthworms (THP 0.1% alone), “Nil”. The “Time taken in minutes (Mean ± SEM), Death” value amounted to 98.16 ± 5.19 min in the series with Earthworms (setting [3]) and 74.64 ± 2.98 min in the series on Earthworms (setting [5]). Besides, the “Time taken in minutes (Mean ± SEM), Paralysis” value in the series with Earthworms (setting [3]) is 86.31 ± 4.3 min; in the series with Earthworms (setting [5]), 62.01 ± 3.33 min. Also, the “change in time taken for paralysis and death” value in the series with Earthworms (Albendazole 0.2% co-administered with tetrahydropiperine 0.2%) is reported as “showed a reduction”. In addition, the “change in time of paralysis and death compared with standard concentration” value in the series with Earthworms (Tetrahydropiperine 0.1% with albendazole 0.2%, unpaired t test) was “no change”. In addition, in series [1] (0.5 ml on intact and abraded skin sites, patch 24 hours, evaluated at 24 and 72 hours), the “skin reaction (erythema, edema, irritation)” value is reported as “No erythema or edema; also recorded: did not cause any irritation”. The “primary skin irritation score” value in series [1] (intact and abraded skin, Draize's method, 24 and 72 hours) is “zero”.
